Here are results for twelve molecules from ChEMBL document CHEMBL4002576, “Tetrahydropyranodiquinolin-8-amines as new, non hepatotoxic, antioxidant, and acetylcholinesterase inhibitors for Alzheimer's disease therapy” (Eur J Med Chem, 2017).

Structures are written as SMILES. Calls of active or inactive are those of the source. The calls are words filed in the database; no cut-off is given here.

For data set [1], the target named is Cholinesterase (Equus caballus, UniProt P81908). In words: Inhibition of horse serum BuChE using butyrylthiocholine as substrate pretreated for 10 mins followed by substrate addition measured after 15 mins by spectrophotometry based Ellman method. A general note: DTNB colorimetry detects thiols as they appear.
Chain of Cholinesterase (P81908 whole entry): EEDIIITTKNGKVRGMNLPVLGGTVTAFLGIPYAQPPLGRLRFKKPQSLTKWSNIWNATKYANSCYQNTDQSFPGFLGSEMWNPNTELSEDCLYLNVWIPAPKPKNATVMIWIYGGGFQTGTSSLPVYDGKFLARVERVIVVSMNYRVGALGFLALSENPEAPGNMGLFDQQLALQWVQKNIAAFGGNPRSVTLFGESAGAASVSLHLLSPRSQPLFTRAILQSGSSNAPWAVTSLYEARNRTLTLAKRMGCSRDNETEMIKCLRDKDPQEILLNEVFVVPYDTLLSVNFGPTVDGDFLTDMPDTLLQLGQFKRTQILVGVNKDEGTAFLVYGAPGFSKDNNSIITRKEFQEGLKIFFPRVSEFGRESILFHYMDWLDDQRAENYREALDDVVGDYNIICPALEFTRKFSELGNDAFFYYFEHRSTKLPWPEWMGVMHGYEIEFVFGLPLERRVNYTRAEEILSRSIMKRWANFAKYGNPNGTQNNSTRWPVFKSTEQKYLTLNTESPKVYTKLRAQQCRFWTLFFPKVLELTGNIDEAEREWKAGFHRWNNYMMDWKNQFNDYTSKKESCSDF
In data set [2] the target is T1, Acetylcholinesterase (Homo sapiens, UniProt P22303). In words: Inhibition of recombinant human AChE expressed in HEK293 cells using acetylthiocholine iodide as substrate pretreated for 5 mins followed by substrate addition measured after 5 mins by spectrophotometry based Ellman method.
T1 sequence (P22303 whole entry): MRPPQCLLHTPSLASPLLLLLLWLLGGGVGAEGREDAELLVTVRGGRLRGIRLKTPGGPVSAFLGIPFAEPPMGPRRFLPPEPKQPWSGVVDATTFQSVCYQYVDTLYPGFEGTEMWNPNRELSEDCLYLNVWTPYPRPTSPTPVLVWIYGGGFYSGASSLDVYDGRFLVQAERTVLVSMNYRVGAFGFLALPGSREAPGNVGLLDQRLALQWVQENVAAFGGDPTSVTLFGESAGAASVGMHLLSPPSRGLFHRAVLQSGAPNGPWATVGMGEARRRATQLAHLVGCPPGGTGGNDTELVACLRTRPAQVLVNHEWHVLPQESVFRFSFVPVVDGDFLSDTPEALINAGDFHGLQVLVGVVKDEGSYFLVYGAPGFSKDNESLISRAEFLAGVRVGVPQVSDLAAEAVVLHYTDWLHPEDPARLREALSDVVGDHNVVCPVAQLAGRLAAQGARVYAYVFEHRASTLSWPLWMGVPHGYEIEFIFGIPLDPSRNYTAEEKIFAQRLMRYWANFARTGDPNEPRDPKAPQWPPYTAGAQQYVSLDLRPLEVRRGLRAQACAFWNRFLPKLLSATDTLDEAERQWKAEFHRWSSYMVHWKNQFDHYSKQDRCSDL
Data set [3] concerns the target Acetylcholinesterase (Electrophorus electricus, UniProt O42275).
Description: Inhibition of Electrophorus electricus AChE using acetylthiocholine iodide as substrate pretreated for 10 mins followed by substrate addition measured after 15 mins by spectrophotometry based Ellman method
Data set [4] in a line: Metal chelating activity assessed as compound-Fe2+ complex formation at 10 uM in presence of FeSO4 after 60 mins by UV-visible spectrophotometric analysis. The class given is functional.
In data set [5] the target is T1, Acetylcholinesterase. In words: Non-competitive inhibition of recombinant human AChE expressed in HEK293 cells using varying levels of acetylthiocholine iodide as substrate pretreated for 5 mins followed by substrate addition measured after 5 mins by Lineweaver-burk plot analysis.
The nature of data set [6]: Metal chelating activity assessed as compound-Cu2+ complex formation at 10 uM in presence of CuSO4 after 20 hrs by UV-visible spectrophotometric analysis. The class given is functional.
Data set [7] can be described thus: in vitro. To be noted: human, primary hepatocytes.
Description: Cytotoxicity against human primary hepatocytes assessed as cell viability at 30 uM measured after 2 hrs by trypan blue assay relative to control
A short description of data set [8]: in vitro. The conditions noted are these: human, primary hepatocytes. The source holds these as a separate data set.
Description: Cytotoxicity against human primary hepatocytes assessed as cell viability at 3 uM measured after 2 hrs by trypan blue assay relative to control
Data set [9] can be described thus: in vitro. The conditions noted are these: human, primary hepatocytes. This is another data set of the same source.
Description: Cytotoxicity against human primary hepatocytes assessed as cell viability at 10 uM measured after 2 hrs by trypan blue assay relative to control
Data set [10] is described as follows: in vitro. The conditions noted are these: human, primary hepatocytes. The source holds these as a separate data set.
Description: Cytotoxicity against human primary hepatocytes assessed as cell viability at 1 uM measured after 2 hrs by trypan blue assay relative to control
Data set [11] is described as follows: Metal chelating activity assessed as compound-Fe2+ complex formation at 10 uM in presence of FeSO4 after 20 hrs by UV-visible spectrophotometric analysis. The class given is functional.
Data set [12] in a line: in vitro. The conditions noted are these: human, primary hepatocytes. This is another data set of the same source.
Description: Cytotoxicity against human primary hepatocytes assessed as cell viability at 100 uM measured after 2 hrs by trypan blue assay relative to control
The nature of data set [13]: in vitro. The conditions noted are these: human, primary hepatocytes. This is another data set of the same source.
Description: Cytotoxicity against human primary hepatocytes assessed as cell viability at 0.1 uM measured after 2 hrs by trypan blue assay relative to control
Data set [14] is described as follows: Metal chelating activity assessed as compound-Cu2+ complex formation at 10 uM in presence of CuSO4 after 60 mins by UV-visible spectrophotometric analysis. The class given is functional.
Data set [15] in a line: physchem. The conditions noted are these: PAMPA, pH 7.4. For orientation: PAMPA measures passive passage across an artificial lipid membrane.
Description: Permeability of the compound at 100 uM at pH 7.4 measured after 6 hrs by PAMPA

As a reminder, the IC50 is the concentration that gives 50% inhibition. Broadly, the Ki is the equilibrium dissociation constant of an inhibitor or competing ligand from its target. As a reminder, the viability is the share of living cells, or the viability signal relative to a control. For orientation: Papp means the rate of passage across a membrane or cell layer, normalised by area and donor concentration. A low value points to poor permeation.

Chain of Acetylcholinesterase (Electrophorus electricus, UniProt O42275) (O42275 whole entry): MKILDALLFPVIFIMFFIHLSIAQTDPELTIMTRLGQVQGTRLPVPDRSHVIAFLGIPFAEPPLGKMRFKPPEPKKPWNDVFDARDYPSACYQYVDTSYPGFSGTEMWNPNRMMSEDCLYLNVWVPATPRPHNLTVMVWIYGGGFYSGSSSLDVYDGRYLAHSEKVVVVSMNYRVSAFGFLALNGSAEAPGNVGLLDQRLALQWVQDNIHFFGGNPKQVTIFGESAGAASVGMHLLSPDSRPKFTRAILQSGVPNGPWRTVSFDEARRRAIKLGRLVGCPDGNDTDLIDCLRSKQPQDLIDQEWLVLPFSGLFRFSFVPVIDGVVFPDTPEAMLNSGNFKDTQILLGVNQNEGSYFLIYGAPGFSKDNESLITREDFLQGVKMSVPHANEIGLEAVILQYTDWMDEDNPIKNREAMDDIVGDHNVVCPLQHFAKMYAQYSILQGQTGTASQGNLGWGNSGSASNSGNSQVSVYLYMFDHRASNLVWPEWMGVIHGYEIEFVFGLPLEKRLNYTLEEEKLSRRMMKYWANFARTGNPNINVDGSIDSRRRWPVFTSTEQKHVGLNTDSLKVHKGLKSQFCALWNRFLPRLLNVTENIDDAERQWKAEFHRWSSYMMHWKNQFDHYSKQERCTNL

For `Nc1c2c(nc3c1C(c1ccccc1)c1ccc4cccnc4c1O3)CCCC2` (stereo not drawn), the IC50 worked out at 1110 nM in data set [1] (read-out: IC50), 1730 nM in data set [2] (read-out: IC50) and 60 nM in data set [3].
Regarding `COc1cccc(C2c3ccc4cccnc4c3Oc3nc4c(c(N)c32)CCCC4)c1` (stereo not drawn), the outcome in data set [4], in data set [6], in data set [11] and in data set [14] was inactive. Also, the Ki in data set [5] was determined as 870 nM. This molecule displayed a viability at 2 h, 30 µM in data set [7] of 99%. The same molecule came in with a viability at 2 h, 3 µM in [8] of 83%. Also, the viability at 2 h, 10 µM in [9] stood at 89%. In data set [10], this molecule returned a viability at 2 h, 1 µM of 84%. Besides, the IC50 is 1300 nM in data set [1] (read-out: IC50), 750 nM in data set [2] (read-out: IC50) and 40 nM in data set [3]. This molecule also returned a viability at 2 h, 100 µM in [12] of 89%. In addition, the viability at 2 h, 0.1 µM in data set [13] was 89%. In addition, in data set [15], the Papp at 6 h, 100 µM was determined as 5.41 ×10⁻⁶ cm/s.
For `Cc1ccc(C2c3ccc4cccnc4c3Oc3nc4c(c(N)c32)CCCC4)cc1` (stereo not drawn), the results for the IC50 in data set [1] (read-out: IC50), in [2] (read-out: IC50) and in data set [3] were 530 nM, 2850 nM and 40 nM, respectively.
On the same counts, the results for `COc1ccc(C2c3ccc4cccnc4c3Oc3nc4c(c(N)c32)CCCC4)cc1` (stereo not drawn) are 1300 nM, 1510 nM and 40 nM.
In the case of `Nc1c2c(nc3c1C(c1c(Cl)cccc1Cl)c1ccc4cccnc4c1O3)CCCC2` (stereo not drawn), the half-maximal inhibitory concentration (IC50) entry in [1] was “Not Active”; in data set [3] it was 100 nM.
Regarding `COc1ccccc1C1c2ccc3cccnc3c2Oc2nc3c(c(N)c21)CCCC3` (stereo not drawn), the results for the IC50 in data set [1] (read-out: IC50) and in data set [3] were 1510 nM and 80 nM, respectively.
For `Nc1c2c(nc3c1C(c1ccccc1F)c1ccc4cccnc4c1O3)CCCC2` (stereo not drawn), the results for the IC50 in data set [1] (read-out: IC50) and in data set [3] were 630 nM and 110 nM, respectively.
Consider `Nc1c2c(nc3c1C(c1ccc([N+](=O)[O-])cc1)c1ccc4cccnc4c1O3)CCCC2` (stereo not drawn), for which the IC50 result in data set [1] was “Not Active”; in data set [3] it was 240 nM.
As for `Nc1c2c(nc3c1C(c1cccc(F)c1)c1ccc4cccnc4c1O3)CCCC2` (stereo not drawn), the IC50 result was “Not Active” in data set [1], 2200 nM in data set [2] (read-out: IC50) and 90 nM in data set [3].
On to `Nc1c2c(nc3c1C(c1ccncc1)c1ccc4cccnc4c1O3)CCCC2` (stereo not drawn), for which the IC50 entry in data set [1] was “Not Active”; in data set [2] (hek293), “Not Active”; in [3] it was 470 nM.
For the molecule `Nc1c2c(nc3c1C(c1ccccc1Br)c1ccc4cccnc4c1O3)CCCC2` (stereo not drawn), the half-inhibitory concentration (IC50) was 210 nM in [1] (read-out: IC50) and 140 nM in data set [3].
Regarding `Nc1c2c(nc3c1C(c1cccnc1Br)c1ccc4cccnc4c1O3)CCCC2` (stereo not drawn), the IC50 in data set [1] (read-out: IC50) was 2860 nM; in data set [2] (hek293), “Not Active”; in data set [3] it was 190 nM.
